Measured values as given in paper PMC7504770, “Mechanistic Insights into the Chaperoning of Human Lysosomal-Galactosidase Activity: Highly Functionalized Aminocyclopentanes and C-5a-Substituted Derivatives of 4-epi-Isofagomine” (Molecules, 2020).
Entries after “also recorded” stand apart in the source; their conditions may differ.

Key:
[1] = molecular target: T1, β-glucosidase/β-galactosidase from Agrobacterium sp. (Abg, GH1) (Agrobacterium sp., UniProt P12614); experiment: Ki determination, Agrobacterium sp. β-glucosidase/β-galactosidase (Abg); type: biochemical; conditions: for Ki: 37 °C, pH 7, substrate pNP β-Gal, read-out: Ki Abg (β-Glc/Gal) (GH1)
T1 sequence (P12614 1-459): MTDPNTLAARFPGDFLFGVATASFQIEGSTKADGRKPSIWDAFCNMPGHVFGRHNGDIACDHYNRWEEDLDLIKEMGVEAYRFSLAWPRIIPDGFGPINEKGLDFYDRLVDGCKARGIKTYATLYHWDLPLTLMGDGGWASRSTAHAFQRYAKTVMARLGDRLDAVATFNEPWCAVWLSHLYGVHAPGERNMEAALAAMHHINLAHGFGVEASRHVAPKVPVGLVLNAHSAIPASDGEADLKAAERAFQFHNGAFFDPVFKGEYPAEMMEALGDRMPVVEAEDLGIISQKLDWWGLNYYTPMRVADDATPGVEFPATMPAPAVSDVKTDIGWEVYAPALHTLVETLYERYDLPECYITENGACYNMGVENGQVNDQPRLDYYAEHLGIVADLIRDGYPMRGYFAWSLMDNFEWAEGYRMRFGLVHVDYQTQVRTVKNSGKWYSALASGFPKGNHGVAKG
Experimental: Kinetic studies were performed at 37 °C in an appropriate buffer (specific conditions depicted below). In a typical assay, the enzyme was incubated with different inhibitor concentrations for up to 5 min before initiating the reaction by the addition of substrate. The initial reaction rate was measured by monitoring the increase in absorbance at 400 nm for up to ten minutes using a Cary4000 (Varian, Palo Alto, CA, USA). Ki determinations were performed using at least two different substrate concentrations. For each inhibitor, a range of four to six inhibitor concentrations bracketing the ultimately determined Ki value was used for each substrate concentration. Dixon plots (1/v vs. [I]) were constructed to validate the use of competitive inhibition model. The data were then fit using non-linear regression analysis with Grafit 7.0 [Erithacus Software, UK].
n.i. stands for no inhibition or weak inhibition with an estimated Ki value higher than 1 mM.
Agrobacterium sp. β-glucosidase: [69, 70] 50 mM sodium phosphate buffer (pH 7).

[2] = molecular target: T2, R201C mutant lysosomal β-galactosidase (Homo sapiens, UniProt P16278, R201C); experiment: Chaperoning activity in R201C patient fibroblasts; type: cell-based; conditions: for chaperoning activity with R201C mutant β-galactosidase: R201C cells (juvenile GM1-gangliosidosis), Figure 7; for β-galactosidase activity at higher concentrations: concentrations higher than 10 µM; for β-galactosidase activity at more than 100 µM: concentrations of more than 100 µM; for influence on β-galactosidase activity: incubation of the cells up to 10 µM
T2 construct: Cell lines from one GM1-Gangliosidosis-patient (R201C) and one WT; endogenous in cells; host or cells: human skin fibroblasts of a GM1-gangliosidosis patient (R201C)
T2 sequence (P16278 29-677 R201C): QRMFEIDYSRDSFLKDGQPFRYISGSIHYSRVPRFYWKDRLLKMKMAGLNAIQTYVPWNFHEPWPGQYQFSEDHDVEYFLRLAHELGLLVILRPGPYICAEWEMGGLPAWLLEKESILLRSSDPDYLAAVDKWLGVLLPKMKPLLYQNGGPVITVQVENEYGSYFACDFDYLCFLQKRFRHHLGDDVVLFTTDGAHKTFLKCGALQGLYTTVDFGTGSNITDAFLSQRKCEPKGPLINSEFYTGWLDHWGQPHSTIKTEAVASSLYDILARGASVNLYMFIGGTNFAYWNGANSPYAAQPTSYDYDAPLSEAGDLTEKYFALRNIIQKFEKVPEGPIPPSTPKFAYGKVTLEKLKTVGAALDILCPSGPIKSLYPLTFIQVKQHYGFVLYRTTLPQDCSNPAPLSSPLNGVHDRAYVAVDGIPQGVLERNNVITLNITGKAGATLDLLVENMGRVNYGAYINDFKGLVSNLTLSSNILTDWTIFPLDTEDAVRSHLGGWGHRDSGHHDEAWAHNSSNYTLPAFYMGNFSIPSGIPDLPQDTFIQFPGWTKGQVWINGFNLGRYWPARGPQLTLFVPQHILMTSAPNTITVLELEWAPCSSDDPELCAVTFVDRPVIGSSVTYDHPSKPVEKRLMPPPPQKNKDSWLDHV
Experimental: Human β-galactosidase and β-hexosaminidase activity measurements were performed in duplicate assays, unless otherwise stated. Fibroblast cells were harvested by trypsinization in 0.9% NaCl containing 0.01% Triton, homogenized by sonication (3 × 10 s, Sonifier Bandelin Sonopuls, Bandelin, Berlin, Germany) and centrifuged at 13,000 rpm for 2 min in a table top centrifuge (Biofuge Pico, Heraeus, Hanau, Germany). Protein amounts were determined according to the method of Lowry.
For assessment of β-Gal activity, 20 µL of cell homogenate were mixed with 100 µL of 0.5 mM 4-methylumbelliferyl-β-D-galactopyranoside (Sigma-Aldrich, St. Louis, MO, USA), in 100 mM citrate buffer (pH 4.0) containing 100 mM NaCl and 0.02% NaN3. After incubation at 37 °C for 30 min, the reaction was stopped by adding 2.5 mL 400 mM glycine/NaOH (pH 10.4).
Cell lines from one GM1-Gangliosidosis-patient (R201C) and one WT, were exposed to compounds 22, 31, and 37, for evaluation of their chaperone effects.
Human skin fibroblasts were grown in minimal essential medium (MEM) with Earle’s Salts (Sigma Aldrich, St. Louis, MO, USA) containing 10% fetal bovine serum, 400 µM L-glutamine, and 50 µg/mL gentamycin at 37 °C and 5% CO2. All cells used in this study were between the third and nineteenth passages.
Potential chaperones were dissolved in DMSO and diluted in 10 mM phosphate buffer (pH 7.0) containing 100 mM NaCl, 0.01% NaN3, and 0.01% Triton for the IC50-measurements and in MEM for the in-vivo tests. The total DMSO concentration in the media was less than 1% and had no effect on β-Gal activity or cell viability.
Fibroblasts were grown to semi-confluency in 6-well plates. Particular chaperone was added to the culture medium at following concentrations: 100–0.02 µmol. Cells were incubated for four additional days at 37 °C. Cells were harvested by scraping and prepared for β-galactosidase and β-hexosaminidase assays as described above.

Compound	Ki [1] [nM]	chaperoning activity with R201C mutant β-galactosidase [2]	β-galactosidase activity at higher concentrations [2]	β-galactosidase activity at more than 100 µM [2]	influence on β-galactosidase activity [2]	fold weaker binding than 17, GH1 bacterial glycosidase ([1]; compared to inhibitor 17) [fold]
CCCCCCCCNC1C=C(CO)C(O)C(O)C1O (stereo not drawn) [Compound 1, N-octyl-epi-valienamine]	7700					
CN(C)c1cccc2c(S(=O)(=O)NCCCCC3NCC(O)C(O)C3CO)cccc12 (stereo not shown) [Compound 11]		reacted very positively				
CN(C)c1cccc2c(S(=O)(=O)NCCCCCC[C@@H]3NC[C@@H](O)[C@@H](O)[C@H]3CO)cccc12 [Compound 14]		reacted very positively				
CCCCCCCCN[C@H]1[C@H](O)[C@@H](O)[C@@H](O)[C@H]1CO [Compound 16]	1	reacted very positively				
CN(C)c1cccc2c(S(=O)(=O)NCCCCCCN[C@H]3[C@H](O)[C@@H](O)[C@@H](O)[C@H]3CO)cccc12 [Compound 17]		reacted very positively				
CN(C)c1cccc2c(S(=O)(=O)NCCCCCC[C@H]3NC[C@@H](O)[C@@H](O)[C@H]3CO)cccc12 [Compound 22]	0.3	reacted very positively; also recorded: encouraging dose-dependent chaperoning profiles				
CN(C)c1cccc2c(S(=O)(=O)NCCCCCCN[C@H]3C[C@@H](O)[C@@H](O)[C@H]3CO)cccc12 [Compound 31, (1R,2S,3R,4S)-3-Hydroxymethyl-4-(6′-dansylaminohexylamino)cyclopentane-1,2-diol]	3.5	distinctly reduced chaperoning activity	decreased enzyme activity	dramatic loss	no notable influence	
CN(C)c1cccc2c(S(=O)(=O)NCCCCCCN[C@H]3[C@H](F)[C@@H](O)[C@@H](O)[C@H]3CO)cccc12 [Compound 37, (1S,2S,3S,4R,5R)-4-(6′-Dansylaminohexyl)amino-3-fluoro-5-hydroxymethylcyclopentane-1,2-diol]	77	only trailed by deoxyfluoro analog 37	decreased enzyme activity	dramatic loss	no notable influence	64
